Experimental data published in patent US20090111801A1, “SUBSTITUTED PYRAZINONE DERIVATIVES FOR USE AS A MEDICINE” (Janssen Pharmaceutica N.V., priority 2006, published 2009).

How the values were obtained:
[1] = target: T1, hα2A receptor (Homo sapiens, UniProt P08913); assay: Radioligand binding experiment for α2A-adrenoceptor ([3H]raulwolscine, CHO cell membranes); settings: [3H]raulwolscine binding; for IC50: read-out: h-α2A pIC50 (converted)
T1 construct: expressed in transfected cells; host or cells: CHO cells, stably transfected; membrane preparation
T1 sequence (P08913 1-465): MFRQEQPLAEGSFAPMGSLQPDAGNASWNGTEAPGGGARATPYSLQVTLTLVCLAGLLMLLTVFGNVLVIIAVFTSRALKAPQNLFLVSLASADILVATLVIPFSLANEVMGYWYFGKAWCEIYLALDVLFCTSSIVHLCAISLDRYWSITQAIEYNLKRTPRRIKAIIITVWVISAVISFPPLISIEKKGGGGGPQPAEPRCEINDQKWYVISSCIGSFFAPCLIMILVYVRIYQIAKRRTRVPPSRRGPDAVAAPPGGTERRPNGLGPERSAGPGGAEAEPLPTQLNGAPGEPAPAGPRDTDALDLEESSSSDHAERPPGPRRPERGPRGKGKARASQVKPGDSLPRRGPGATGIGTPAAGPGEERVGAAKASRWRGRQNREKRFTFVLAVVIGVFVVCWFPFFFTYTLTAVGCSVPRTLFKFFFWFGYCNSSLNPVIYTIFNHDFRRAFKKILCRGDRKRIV
Method: (§1) The interaction of a compound of Formula (I) with α2-adrenoceptor receptors was assessed in in vitro radioligand binding experiments. In general, a low concentration of a radioligand with a high binding affinity for a particular receptor or transporter is incubated with a sample of a tissue preparation enriched in a particular receptor or transporter or with a preparation of cells expressing cloned human receptors in a buffered medium. During the incubation, the radioligand binds to the receptor or transporter. When equilibrium of binding is reached, the receptor bound radioactivity is separated from the non-bound radioactivity, and the receptor- or transporter-bound activity is counted. The interaction of the test compounds with the receptor is assessed in competition binding experiments. Various concentrations of the test compound are added to the incubation mixture containing the receptor- or transporter preparation and the radioligand. The test compound in proportion to its binding affinity and its concentration inhibits binding of the radioligand. The radioligand used for hα2A and hα2C receptor binding was [^3H]-raulwolscine.
(§2) CHO cells, stabile transfected with human adrenergic-α2A and α2C receptor cDNA, were cultured in Dulbecco's Modified Eagle's Medium (DMEM)/Nutrient mixture Ham's F12 (ratio 1:1)(Gibco, Gent-Belgium) supplemented with 10% heat inactivated fetal calf serum (Life Technologies, Merelbeke-Belgium) and antibiotics (100 IU/ml penicillin G, 100 μg/ml streptomycin sulphate, 110 μg/ml pyruvic acid and 100 μg/ml L-glutamine). One day before collection, cells were induced with 5 mM sodiumbutyrate. Upon 80-90% of confluence, cells were scraped in phosphate buffered saline without Ca^2+ and Mg^2+ and collected by centrifugation at 1500×g for 10 minutes. The cells were homogenised in Tris-HCl 50 mM using an Ultraturrax homogenizer and centrifuged for 10 minutes at 23,500×g. The pellet was washed once by resuspension and rehomogenization and the final pellet was resuspended in Tris-HCl, divided in 1 ml aliquots and stored at −70° C.
(§3) Membranes were thawed and re-homogenized in incubation buffer (glycylglycine 25 mM, pH 8.0). […] Filters were rinsed extensively with ice-cold rinsing buffer (Tris-HCl 50 mM pH 7.4). Filter-bound radioactivity was determined by scintillation counting in a Topcount (Packard, Meriden, Conn.) and results were expressed as counts per minute (cpm). Non-specific binding was determined in the presence of 1 μM oxymetazoline for the hα2A receptor and 1 μM spiroxatrine for hα2C receptor.
(§4) Data from assays in the presence of compound were calculated as a percentage of total binding measured in the absence of test compound. Inhibition curves, plotting percent of total binding versus the log value of the concentration of the test compound, were automatically generated, and sigmoidal inhibition curves were fitted using non-linear regression. The pIC50 values of test compounds were derived from individual curves.

[2] = target: T2, hα2C receptor (Homo sapiens, UniProt P18825); assay: Radioligand binding experiment for α2C-adrenoceptor ([3H]raulwolscine, CHO cell membranes); settings: [3H]raulwolscine binding; for IC50: read-out: h-α2C pIC50 (converted)
T2 construct: expressed in transfected cells; host or cells: CHO cells, stably transfected; membrane preparation
T2 sequence (P18825 1-462): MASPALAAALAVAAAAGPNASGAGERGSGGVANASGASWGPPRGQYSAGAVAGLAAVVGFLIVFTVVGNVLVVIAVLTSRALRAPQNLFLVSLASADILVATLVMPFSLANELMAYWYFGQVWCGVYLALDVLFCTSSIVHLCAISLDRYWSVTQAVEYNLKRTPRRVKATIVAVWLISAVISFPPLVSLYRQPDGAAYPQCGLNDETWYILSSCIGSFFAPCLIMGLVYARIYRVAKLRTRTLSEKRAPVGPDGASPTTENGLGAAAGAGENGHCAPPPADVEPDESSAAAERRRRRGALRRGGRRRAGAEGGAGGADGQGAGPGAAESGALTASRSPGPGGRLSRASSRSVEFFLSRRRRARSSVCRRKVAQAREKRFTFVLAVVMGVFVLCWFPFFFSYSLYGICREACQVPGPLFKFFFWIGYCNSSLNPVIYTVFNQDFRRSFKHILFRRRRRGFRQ
Method: as §1, §2, §3, §4

[3] = target: T3, 5HT-Transporter (Homo sapiens, UniProt P31645); assay: Binding experiment for the 5HT-transporter ([3H]paroxetine, human platelet membranes); settings: [3H]paroxetine 0.5 nM; for IC50: read-out: h-5HTT pIC50 (converted)
T3 construct: Human platelet membranes (Oceanix Biosciences Corporation, Hanover, Md., USA) were thawed; tissue Oceanix Biosciences Corporation, Hanover, Md., USA; host or cells: human platelet membranes
Method: as §1
Human platelet membranes (Oceanix Biosciences Corporation, Hanover, Md., USA) were thawed, diluted in buffer (Tris-HCl 50 mM, 120 mM NaCl and 5 mM KCl) and quickly (max 3 s) homogenised with an Ultraturrax homogenizer. […] Incubation was stopped by rapid filtration of the incubation mixture over GF/B filters, pre-wetted with 0.1% polyethyleneamine, using a Filtermate196 harvester (Packard, Meriden, Conn.). Filters were rinsed extensively with ice-cold buffer and radioactivity on the filters was counted in a Topcount liquid scintillation counter (Packard, Meriden, Conn.). Data were expressed as cpm. Imipramine (at 1 μM final concentration) was used to determine the non-specific binding.
as §4

T3 sequence (P31645 whole entry): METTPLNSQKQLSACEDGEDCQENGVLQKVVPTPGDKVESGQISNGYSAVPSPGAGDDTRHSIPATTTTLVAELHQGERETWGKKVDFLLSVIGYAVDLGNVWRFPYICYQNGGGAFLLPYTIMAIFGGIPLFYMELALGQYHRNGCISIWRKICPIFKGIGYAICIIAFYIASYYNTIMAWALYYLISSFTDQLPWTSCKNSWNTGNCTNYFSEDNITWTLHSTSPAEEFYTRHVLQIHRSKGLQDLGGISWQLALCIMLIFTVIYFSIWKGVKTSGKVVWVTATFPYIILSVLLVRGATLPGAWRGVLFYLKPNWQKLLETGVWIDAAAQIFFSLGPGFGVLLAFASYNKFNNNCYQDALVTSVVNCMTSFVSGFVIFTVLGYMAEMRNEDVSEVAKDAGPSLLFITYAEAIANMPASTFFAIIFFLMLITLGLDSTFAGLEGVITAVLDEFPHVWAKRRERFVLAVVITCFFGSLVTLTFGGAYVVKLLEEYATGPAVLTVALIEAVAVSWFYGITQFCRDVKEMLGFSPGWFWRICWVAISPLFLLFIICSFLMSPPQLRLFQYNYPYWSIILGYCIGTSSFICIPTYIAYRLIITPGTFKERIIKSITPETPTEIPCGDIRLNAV

h-α2A pIC50 [1]	h-α2C pIC50 [2]	h-5HTT pIC50 [3]	IC50 [1]	IC50 [2]	IC50 [3]	Structure (SMILES)
–	–	–	794 nM	63.1 nM	> 10000 nM	O=c1c(NC2CCN(C/C=C/c3ccccc3)CC2)nccn1CCN1CCCCC1 [16-6]
–	–	–	158 nM	39.8 nM	3980 nM	C/C(=C\c1ccccc1)CN1CCN(c2ncc[nH]c2=O)CC1 [14-1]
–	–	–	79.4 nM	63.1 nM	794 nM	COC(=O)c1ccc(Cn2ccnc(NC3CCN(C/C(C)=C/c4ccccc4)CC3)c2=O)cc1 [3-14]
–	–	–	631 nM	158 nM	794 nM	O=c1c(NC2CCN(C/C=C/c3ccccc3)CC2)nccn1Cc1ccccc1Br [16-15]
–	–	–	1000 nM	316 nM	> 10000 nM	CC(=O)Cn1ccnc(NC2CCN(C/C=C/c3ccccc3)CC2)c1=O [16-24]
–	–	–	501 nM	316 nM	794 nM	O=c1c(NC2CCN(C/C=C/c3ccccc3)CC2)nccn1Cc1ccc(Br)cc1 [16-17]
–	–	–	2510 nM	316 nM	> 10000 nM	CN(C)C(=O)Cn1ccnc(NC2CCN(C/C=C/c3ccccc3)CC2)c1=O [16-3]

More lines, now with the values behind:

Structure (SMILES)	h-α2A pIC50 [1]	h-α2C pIC50 [2]	h-5HTT pIC50 [3]	IC50 [1]	IC50 [2]	IC50 [3]
C/C(=C\c1ccccc1)CN1CCC(Nc2nccn(-c3ccc(CNCC4CCCO4)cc3)c2=O)CC1 (stereo not drawn) [1-146]	7.0	8.6	6.3	–	–	–
C/C(=C\c1ccccc1)CN1CCC(Nc2nccn(Cc3ccc(NCCN(C)C)cc3)c2=O)CC1 [1-104]	–	–	–	12.6 nM	2.51 nM	200 nM
C/C(=C\c1ccccc1)CN1CCC(Nc2nccn(CCCN(C)C(=O)c3ccc(F)cc3)c2=O)CC1 [1-79]	–	–	–	2000 nM	39.8 nM	> 10000 nM
C/C(=C\c1ccccc1)CN1CCC(Nc2nccn(CC(=O)NCCCN3CCCC3=O)c2=O)CC1 [1-132]	–	–	–	316 nM	12.6 nM	2510 nM
C/C(=C\c1ccccc1)CN1CCC(Nc2nccn(CCCN(C)C)c2=O)CC1 [1-15]	–	–	–	50.1 nM	3.98 nM	7940 nM
C/C(=C\c1ccccc1)CN1CCC(Nc2nccn(Cc3ccc(CNS(C)(=O)=O)cc3)c2=O)CC1 [1-156]	–	–	–	158 nM	31.6 nM	1260 nM
CNCc1ccc(Cn2ccnc(NC3CCN(C/C(C)=C/c4ccccc4)CC3)c2=O)cc1 [1-9]	–	–	–	31.6 nM	3.98 nM	1580 nM
C/C(=C\c1ccccc1)CN1CCC(Nc2nccn(CC(=O)N(CCN3CCCC3C)Cc3ccc(F)cc3)c2=O)CC1 (stereo not drawn) [1-138]	–	–	–	7.94 nM	0.794 nM	1260 nM
C/C(=C\c1ccccc1)CN1CCC(Nc2nccn(CC(=O)N3CCN(C)CC3)c2=O)CC1 [2-20]	–	–	–	63.1 nM	3.16 nM	2510 nM
COc1cc(CNC(=O)NCc2ccc(Cn3ccnc(NC4CCN(C/C(C)=C/c5ccccc5)CC4)c3=O)cc2)cc(OC)c1 [1-126]	–	–	–	251 nM	39.8 nM	501 nM
C/C(=C\c1ccccc1)CN1CCC(Nc2nccn(CCCN(c3ccccc3)S(=O)(=O)c3ccccc3)c2=O)CC1 [1-168]	–	–	–	158 nM	10 nM	200 nM
CCCCS(=O)(=O)NCc1ccc(Cn2ccnc(NC3CCN(C/C(C)=C/c4ccccc4)CC3)c2=O)cc1 [1-157]	–	–	–	251 nM	50.1 nM	1000 nM
CSCCn1ccnc(NC2CCN(C/C(C)=C/c3ccccc3)CC2)c1=O [4-1]	–	–	–	39.8 nM	20 nM	3160 nM
C/C(=C\c1ccccc1)CN1CCC(Nc2nccn(CC(=O)NCc3ccco3)c2=O)CC1 [1-147]	–	–	–	50.1 nM	3.16 nM	3160 nM
C/C(=C\c1ccccc1)CN1CCC(Nc2nccn(-c3ccc(NCCc4ccccc4)cc3)c2=O)CC1 [1-59]	–	–	–	79.4 nM	10 nM	1260 nM
C/C(=C\c1ccccc1)CN1CCC(Nc2nccn(CC(=O)N(C)CCN(C)Cc3ccccc3)c2=O)CC1 [1-111]	–	–	–	50.1 nM	0.794 nM	3980 nM
C/C(=C\c1ccccc1)CN1CCC(Nc2nccn(CC(=O)N(CCN3CCCC3)Cc3ccc(F)cc3)c2=O)CC1 [1-136]	–	–	–	10 nM	0.316 nM	631 nM
C/C(=C\c1ccccc1)CN1CCC(Nc2nccn(-c3ccc(C(=O)N4CCN(Cc5ccccc5)CC4)cc3)c2=O)CC1 [2-32]	–	–	–	200 nM	12.6 nM	1260 nM
C/C(=C\c1ccccc1)CN1CCC(Nc2nccn(CCCNC(=O)c3ccccc3)c2=O)CC1 [1-72]	–	–	–	126 nM	3.16 nM	1580 nM
C/C(=C\c1ccccc1)CN1CCC(Nc2nccn(CC(=O)Nc3ccc(F)cc3)c2=O)CC1 [1-42]	–	–	–	100 nM	3.98 nM	501 nM
C/C(=C\c1ccccc1)CN1CCC(Nc2nccn(-c3ccc(Nc4ccc(F)cc4)cc3)c2=O)CC1 [1-44]	–	–	–	100 nM	5.01 nM	794 nM
C/C(=C\c1ccccc1)CN1CCC(Nc2nccn(CC(=O)N(CCCn3ccnc3)Cc3ccc(F)cc3)c2=O)CC1 [1-143]	–	–	–	79.4 nM	3.16 nM	2000 nM
C/C(=C\c1ccccc1)CN1CCC(Nc2nccn(-c3ccc(N4CCCCC4)cc3)c2=O)CC1 [2-7]	–	–	–	50.1 nM	5.01 nM	1260 nM
CC(=O)N1CCN(Cc2ccc(-n3ccnc(NC4CCN(C/C(C)=C/c5ccccc5)CC4)c3=O)cc2)CC1 [2-23]	6.1	7.4	5.1	–	–	–
C/C(=C\c1ccccc1)CN1CCC(Nc2nccn(-c3ccncc3)c2=O)CC1 [6-12]	–	–	–	50.1 nM	7.94 nM	1580 nM
C/C(=C\c1ccccc1)CN1CCC(Nc2nccn(-c3cccc(Nc4ccc(F)cc4)c3)c2=O)CC1 [1-43]	–	–	–	12.6 nM	3.16 nM	50.1 nM
CCCNCc1cccc(-n2ccnc(NC3CCN(C/C(C)=C/c4ccccc4)CC3)c2=O)c1 [1-12]	8.4	9.0	6.1	–	–	–
CC(=O)Nc1ccc(S(=O)(=O)NCc2ccc(Cn3ccnc(NC4CCN(C/C(C)=C/c5ccccc5)CC4)c3=O)cc2)cc1 [1-164]	–	–	–	158 nM	20 nM	501 nM
